US8362005B2, “Monocyclic amide CGRP receptor antagonists” (Merk. Sharp & Dohme Corp., priority 2008, dated 2013)
pKi: −log10 of the molar value. Each block holds one compound with its values, some of them ahead of it. Ends that are not written are not given here.

Legend:
facial blood flow [1] = conditions: rat, trigeminal ganglion stimulation; cited from earlier work
middle meningeal artery = conditions: rats, electrical stimulation of the dura mater, prior administration; cited from earlier work
[2] = tested on: acute attacks of migraine; conditions: clinical trials; cited from earlier work
[3] = tested on: headache induced by CGRP infusion; conditions: control group, clinical; cited from earlier work
facial blood flow [4] = conditions: marmoset, electrical stimulation of the trigeminal ganglion; cited from earlier work
[5] = biological target: T1, recombinant human CL receptor/RAMP1 (Homo sapiens, UniProt O60894+Q16602); experiment: Recombinant receptor binding assay (125I-hCGRP, membranes of HEK 293 cells); conditions: 10 pM 125I-hCGRP
T1 construct: expressed in transfected cells; membranes
Protocol: RECOMBINANT RECEPTOR: Human CL receptor (Genbank accession number L76380) was subcloned into the expression vector pIREShyg2 (BD Biosciences Clontech) as a 5′NheI and 3′ PmeI fragment. Human RAMP 1 (Genbank accession number AJ001014) was subcloned into the expression vector pIRESpuro2 (BD Biosciences Clontech) as a 5′NheI and 3′NotI fragment. HEK 293 cells (human embryonic kidney cells; ATCC #CRL-1573) were cultured in DMEM with 4.5 g/L glucose, 1 mM sodium pyruvate and 2 mM glutamine supplemented with 10% fetal bovine serum (FBS), 100 units/mL penicillin and 100 μg/mL streptomycin, and maintained at 37° C. and 95% humidity. Cells were subcultured by treatment with 0.25% trypsin with 0.1% EDTA in HBSS. Stable cell line generation was accomplished by co-transfecting 10 μg of DNA with 30 μg Lipofectamine 2000 (Invitrogen) in 75 cm^2 flasks. CL receptor and RAMP1 expression constructs were co-transfected in equal amounts. […]
[formula] Where Y is observed CPM bound, Ymax is total bound counts, Ymin is non specific bound counts, (Ymax−Ymin) is specific bound counts, % Imax is the maximum percent inhibition, % I min is the minimum percent inhibition, radiolabel is the probe, and the Kd is the apparent dissociation constant for the radioligand for the receptor as determined by Hot saturation experiments.

T1 sequence (Q16602 23-461): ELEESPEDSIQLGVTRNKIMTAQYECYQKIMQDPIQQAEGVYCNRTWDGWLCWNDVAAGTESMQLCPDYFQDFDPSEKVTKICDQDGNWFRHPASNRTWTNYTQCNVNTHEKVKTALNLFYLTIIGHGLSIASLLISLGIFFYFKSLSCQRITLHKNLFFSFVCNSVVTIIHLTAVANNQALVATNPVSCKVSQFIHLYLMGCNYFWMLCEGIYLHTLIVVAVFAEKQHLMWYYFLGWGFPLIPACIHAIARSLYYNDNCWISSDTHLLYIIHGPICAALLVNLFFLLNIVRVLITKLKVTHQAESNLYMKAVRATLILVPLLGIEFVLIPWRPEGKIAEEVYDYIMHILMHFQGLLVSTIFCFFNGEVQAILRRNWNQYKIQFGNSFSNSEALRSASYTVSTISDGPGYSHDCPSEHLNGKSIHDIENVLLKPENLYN
T1 sequence (O60894 27-148): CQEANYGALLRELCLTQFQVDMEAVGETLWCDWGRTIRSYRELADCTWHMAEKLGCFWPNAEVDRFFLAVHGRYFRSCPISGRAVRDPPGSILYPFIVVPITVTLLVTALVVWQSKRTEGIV

Compound: CGRP(8-37): a peptide CGRP antagonist; fragment of CGRP that lacks seven N-terminal amino acid residues (VTHRLAGLLSRSGGVVKNNFVPTNVGSKAF; ends and bridges not checked; UniProt P06881 90-119, looked up, fragment)
inhibition of increased facial blood flow (facial blood flow [1]): inhibited
block of the increase in diameter of the middle meningeal artery (middle meningeal artery): blocked

Compound: NCCCC[C@H](NC(=O)[C@@H](Cc1cc(Br)c(O)c(Br)c1)NC(=O)N1CCC(N2Cc3ccccc3NC2=O)CC1)C(=O)N1CCN(c2ccncc2)CC1 [BIBN4096BS]
efficacy in treating acute attacks of migraine [2]: effective in treating acute attacks of migraine
prevention of headache induced by CGRP infusion [3]: able to prevent headache induced by CGRP infusion
block of the increase in facial blood flow (facial blood flow [4]): could be blocked

pKi [5]: 6.89
Compound: O=C(Cn1c(-c2ccccc2)c(Cl)nc(N2CCCC2)c1=O)Nc1ccc2c(c1)CC1(C2)C(=O)Nc2ncccc21 (stereo not drawn) [Example 5, 2-(5-Chloro-2-oxo-6-phenyl-3-pyrrolidin-1-ylpyrazin-1(2H)-yl)-N-(2′,-oxo-1,1′,2′,3-tetrahydrospiro[indene-2,3′-pyrrolo[2,3-b]pyridin]-5-yl)acetamide]
